“And” between values parts separate entries of the source, which are not always exact repeats. Equal values may be shown once. Read-outs that look alike come from different tables or passages of the source. Square brackets hold non-standard residues; d marks the D form. Peptide text beside a SMILES is read from it. * marks the point of attachment. NHPhenethyl = c1ccc(CCN*)cc1; Boc = CC(C)(C)OC(=O)*

In the experiment the target is T1, Neurolysin (Nln) (Rattus norvegicus, UniProt P42676).
T1 construct: polyhistidine (N); made in house; host or cells: Escherichia coli (pBAD/His vector), if the rat enzyme of b61 was used
T1 sequence (P42676 38-704): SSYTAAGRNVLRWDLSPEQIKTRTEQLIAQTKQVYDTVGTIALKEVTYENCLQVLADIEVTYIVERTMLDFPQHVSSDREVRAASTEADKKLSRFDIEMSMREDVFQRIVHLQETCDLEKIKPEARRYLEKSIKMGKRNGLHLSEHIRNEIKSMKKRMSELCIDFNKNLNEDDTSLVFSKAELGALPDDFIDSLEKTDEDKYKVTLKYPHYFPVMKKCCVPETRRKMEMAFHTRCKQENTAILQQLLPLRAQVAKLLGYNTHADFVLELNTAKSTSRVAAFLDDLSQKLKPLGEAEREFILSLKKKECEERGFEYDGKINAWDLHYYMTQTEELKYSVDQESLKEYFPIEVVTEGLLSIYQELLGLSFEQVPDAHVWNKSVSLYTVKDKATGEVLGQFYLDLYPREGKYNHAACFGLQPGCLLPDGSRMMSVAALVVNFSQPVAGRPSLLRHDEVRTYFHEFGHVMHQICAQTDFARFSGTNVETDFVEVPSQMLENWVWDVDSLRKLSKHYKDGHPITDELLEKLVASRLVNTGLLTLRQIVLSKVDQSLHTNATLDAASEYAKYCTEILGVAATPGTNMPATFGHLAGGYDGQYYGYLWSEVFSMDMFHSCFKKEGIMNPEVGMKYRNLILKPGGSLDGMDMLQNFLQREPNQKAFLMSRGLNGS
Description: Nln activation in isolated enzyme assay (A50, Amax). Conditions: for EC50: read-out: A50 (concentration required to activate Nln by 50%). In kind it is biochemical.

Where [1] appears, read: 100% = normal enzyme turnover, 95% CI in parentheses.

With `CC(C)(C)OC(=O)N[C@@H](Cc1c[nH]cn1)C(=O)NCCc1ccccc1`, the “A50 (concentration required to activate Nln by 50%)” value (95% CI in parentheses) is given as “Inactive”. For the same molecule, the “Amax (maximum % activation achieved)” value under setting [1] was “Inactive”.

For `CC(C)(C)OC(=O)N[C@@H](Cc1c[nH]cn1)C(=O)NCCc1c[nH]c2ccccc12`, where the note is “95% CI in parentheses”, the “A50 (concentration required to activate Nln by 50%)” value is listed as “Inactive”. Besides, the “Amax (maximum % activation achieved)” value under setting [1] is “Inactive”. With `NC(Cc1c[nH]cn1)C(=O)NCCc1cc2ccccc2[nH]1` (racemic) [(±)PT-1-173 RACEMIC], the “Amax (maximum % activation achieved)” value was 311 (298.6 to 325.7) %.

As for `N[C@H](Cc1c[nH]cn1)C(=O)NCc1ccc(C(F)(F)F)cc1` (single isomer, unassigned) [AB1-17-2], the “Amax (maximum % activation achieved)” value was 598.8 (532.8 to 692.9) %. The same measure, in the same setting: the result for `N[C@H](Cc1c[nH]cn1)C(=O)NCCc1ccc(C(F)(F)F)cc1` (single isomer, unassigned) [AB-1-8-2] reads 643 (588.8 to 714) %. As to `N[C@@H](Cc1c[nH]cn1)C(=O)Nc1ccccc1` (single isomer, unassigned) [DF-5-2A], the EC50 (95% CI in parentheses) was 7.74 µM. The “Amax (maximum % activation achieved)” value under setting [1] is recorded as 139.8 (124.7 to 158.4) %. For the molecule `N[C@@H](Cc1c[nH]cn1)C(=O)N[C@@H](Cc1ccccc1)C(=O)O` (stereo in doubt) [Compound 3, His-Phe], the EC50 (95% CI in parentheses) turned out to be 130 µM. For the same molecule, the “Amax (maximum % activation achieved)” value is, setting by setting: under setting [1], 573 (547.9 to 602.7) %; (100% = normal enzyme turnover, 95% CI in parentheses, listed as His-Phe) 573 (547.9 to 602.7) %. In the case of `N[C@@H](Cc1c[nH]cn1)C(=O)NCCc1ccc(C(F)(F)F)cc1` [AB 3-2-2], the “Amax (maximum % activation achieved)” value is 438.4 (379.4 to 520.4) %. `N[C@@H](Cc1ccccn1)C(=O)NCCc1ccccc1` [AB-1-3-2]: for the setting “95% CI in parentheses”, the “A50 (concentration required to activate Nln by 50%)” value is reported as “Inactive”. Besides, the “Amax (maximum % activation achieved)” value under setting [1] is “Inactive”. As for `COc1ccc(CCNC(=O)[C@@H](N)Cc2c[nH]cn2)cc1` [AB-1-4-2], the “Amax (maximum % activation achieved)” value under setting [1] is recorded as 544 (492.2 to 609.4) %. For `N[C@@H](Cc1c[nH]cn1)C(=O)NCc1cccc(C(F)(F)F)c1` [AB-1-6-2], the “Amax (maximum % activation achieved)” value was 494.4 (476.7 to 512.9) %. Still for that read-out and setting: the result for `N[C@H](Cc1cnc[nH]1)C(=O)NCc1cccc(C(F)(F)F)c1` [AB-1-9-2] reads 184.4 (169.4 to 201.5) %.

For the molecule `COc1cccc(CNC(=O)[C@H](N)Cc2cnc[nH]2)c1` [AB-1-14-2], the “Amax (maximum % activation achieved)” value is recorded as 477.1 (444 to 516) %. On the same count and under the same terms, the same measure for `COc1ccc(CNC(=O)[C@H](N)Cc2cnc[nH]2)cc1` [AB-1-16-2]: 703.5 (588.9 to 915.6) %. For the molecule `N[C@@H](Cc1c[nH]cn1)C(=O)N[C@@H](Cc1ccccc1)C(=O)NCCc1ccccc1` [AB-2-5-4] (H-His-Phe-NHPhenethyl), the EC50 (95% CI in parentheses) turned out to be 5.4 µM. The “Amax (maximum % activation achieved)” value under setting [1] is recorded as 177.6 (158.7 to 198.1) %. As for `N[C@H](Cc1c[nH]cn1)C(=O)NCCc1ccccc1` [AB-2-7-2], under setting [1], the “Amax (maximum % activation achieved)” value is 407 (382.7 to 434.9) %. `N[C@@H](Cc1c[nH]cn1)C(=O)N[C@@H](Cc1ccc(O)cc1)C(=O)O` [Compound 1, Histidine-tyrosine] (H-His-Tyr-OH): the “Amax (maximum % activation achieved)” value is listed as 467 (424.9 to 516.9) % under setting [1] and 467 (424.9 to 516.9) % (100% = normal enzyme turnover, 95% CI in parentheses, listed as His-Tyr). Take `N[C@@H](Cc1c[nH]cn1)C(=O)N[C@H](Cc1c[nH]cn1)C(=O)O` [Compound 2]: under setting [1], the “Amax (maximum % activation achieved)” value is listed as 202.8 (192.2 to 213.4) %. `N[C@@H](Cc1ccc(O)cc1)C(=O)N[C@H](Cc1c[nH]cn1)C(=O)O` [Compound 4a, H-Try-His-OH] (H-Tyr-[dH]-OH): the “Nln activation (in words)” value is “complete amelioration of Nln activation”. Under “95% CI in parentheses”, the “A50 (concentration required to activate Nln by 50%)” value is recorded as “Inactive”. In addition, the “Amax (maximum % activation achieved)” value under setting [1] was “Inactive”.

For `CC(C)(C)OC(=O)N[C@@H](Cc1c[nH]cn1)C(=O)N[C@H](Cc1ccccc1)C(=O)O` [Compound 4b] (Boc-His-[dF]-OH), the “Nln activation (in words)” value was “inactive”. Regarding `N[C@@H](Cc1c[nH]cn1)C(=O)NCCc1ccccc1` [Compound 4c, (S)-2-amino-3-(1H-imidazol-4-yl)-N-phenethylpropanamide], under setting [1], the “Amax (maximum % activation achieved)” value is reported as 337.2 (302-378.6) %. In the case of `N[C@H](Cc1c[nH]cn1)C(=O)NCCc1ccccc1` [Compound 4d, (R)-2-amino-3-(1H-imidazol-4-yl)-N-phenethylpropanamide], the “Amax (maximum % activation achieved)” value under setting [1] is 294.6 (278.0 to 313) %. As to `COc1ccc(CCNC(=O)[C@@H](N)Cc2c[nH]cn2)cc1` [Compound 4e, (S)-2-amino-3-(1H-imidazol-4-yl)-N-(4-methoxyphenethyl)propanamide], the “Amax (maximum % activation achieved)” value under setting [1] was 339.4 (314.2 to 369.3) %. On the same count and under the same terms, the same measure for `COc1ccc(CCNC(=O)[C@H](N)Cc2c[nH]cn2)cc1` [Compound 4f, (R)-2-amino-3-(1H-imidazol-4-yl)-N-(4-methoxyphenethyl)propanamide]: 378.3 (350.5 to 411.9) %. Take `N[C@H](Cc1c[nH]cn1)C(=O)NCCc1ccc(C(F)(F)F)cc1` [Compound 4l, (R)-2-amino-3-(1H-imidazol-4-yl)-N-(4-(trifluoromethyl)phenethyl)propanamide]: the “Amax (maximum % activation achieved)” value is recorded as 330.1 (313.9 to 347.7) %. In the case of `N[C@@H](Cc1c[nH]cn1)C(=O)NCCc1ccc(F)cc1` [Compound 4m, (S)-2-amino-N-(4-fluorophenethyl)-3-(1H-imidazol-4-yl)propanamide], the EC50 (95% CI in parentheses) is 28 µM and 27.9 µM. Moreover, the “Amax (maximum % activation achieved)” value under setting [1] is given as 323.1 (311.4 to 335.6) %.

Take `N[C@H](Cc1c[nH]cn1)C(=O)NCCc1ccc([N+](=O)[O-])cc1` [Compound 4p, (R)-2-amino-3-(1H-imidazol-4-yl)-N-(4-nitrophenethyl)propanamide]: the “Amax (maximum % activation achieved)” value was 267.5 (250.1 to 287.1) %.

With `COc1ccccc1CNC(=O)[C@@H](N)Cc1c[nH]cn1` [Compound 5d], the “Amax (maximum % activation achieved)” value is 385.8 (363.8 to 410.5) %. `COc1cccc(CNC(=O)[C@@H](N)Cc2c[nH]cn2)c1` [Compound 5f]: the “Amax (maximum % activation achieved)” value is 327.5 (309.7 to 348.2) %. As to `N[C@H](Cc1c[nH]cn1)C(=O)NCc1ccc(C(F)(F)F)cc1` [Compound 5i, (R)-2-amino-3-(1H-imidazol-4-yl)-N-(4-(trifluoromethyl)benzyl)propanamide], the “Amax (maximum % activation achieved)” value is on record as 319.1 (296.3 to 344.3) %. On the same count and under the same terms, the same measure for `N[C@H](Cc1c[nH]cn1)C(=O)NCc1ccccc1C(F)(F)F` [Compound 5k, (R)-2-amino-3-(1H-imidazol-4-yl)-N-(2-(trifluoromethyl)benzyl)propanamide]: 345.8 (317.5 to 378.3) %; for `N[C@H](Cc1c[nH]cn1)C(=O)NCc1cccc(C(F)(F)F)c1` [Compound 5m]: 282 (258.4 to 309.1) %; for `N[C@@H](Cc1c[nH]cn1)C(=O)NCc1ccc(F)cc1` [Compound 5n, (S)-2-amino-N-(4-fluorobenzyl)-3-(1H-imidazol-4-yl)propanamide]: 293 (276.5-310.7) %.

`N[C@H](Cc1c[nH]cn1)C(=O)NCc1ccc(F)cc1` [Compound 5o, (R)-2-amino-N-(4-fluorobenzyl)-3-(1H-imidazol-4-yl)propanamide]: the “Amax (maximum % activation achieved)” value is given as 320.5 (299.7 to 343.9) %. On the same count and under the same terms, the same measure for `N[C@@H](Cc1c[nH]cn1)C(=O)NCc1ccc(OC(F)(F)F)cc1` [Compound 5p]: 310 (287.2 to 336.1) %; for `N[C@H](Cc1c[nH]cn1)C(=O)NCc1ccc(OC(F)(F)F)cc1` [Compound 5q, (R)-2-amino-3-(1H-imidazol-4-yl)-N-(4-(trifluoromethoxy)benzyl)propanamide]: 337.1 (312 to 364.9) %. Regarding `N[C@@H](Cc1c[nH]cn1)C(=O)NCc1ccc(SC(F)(F)F)cc1` [Compound 5r], the “Amax (maximum % activation achieved)” value is reported as 287.5 (277.4 to 298.4) %. With `N[C@@H](Cc1c[nH]cn1)C(=O)Nc1ccccc1` [Compound 6a, (S)-2-amino-3-(1H-imidazol-4-yl)-N-phenylpropanamide], the EC50 (95% CI in parentheses) is 252 µM. In addition, the “Amax (maximum % activation achieved)” value under setting [1] was 467% and 466.6%. For the molecule `N[C@H](Cc1c[nH]cn1)C(=O)Nc1ccccc1` [Compound 6b, (R)-2-amino-3-(1H-imidazol-4-yl)-N-phenylpropanamide], the EC50 (95% CI in parentheses) stood at 114 µM. Under setting [1], the “Amax (maximum % activation achieved)” value was 440.3 (414.9 to 470.4) %. For the molecule `N[C@@H](Cc1c[nH]cn1)C(=O)NCCCc1ccccc1` [Compound 7a, (S)-2-amino-3-(1H-imidazol-4-yl)-N-(3-phenylpropyl)propanamide], the “Amax (maximum % activation achieved)” value under setting [1] was 288.1 (273.6 to 303.8) %. In the case of `N[C@H](Cc1c[nH]cn1)C(=O)NCCCc1ccccc1` [Compound 7b, (R)-2-amino-3-(1H-imidazol-4-yl)-N-(3-phenylpropyl)propanamide], the “Amax (maximum % activation achieved)” value under setting [1] is 281.8 (269.9-294.5) %. Same read-out and setting: the same measure for `N[C@@H](Cc1c[nH]cn1)C(=O)NCCCCc1ccccc1` [Compound 8a, (S)-2-amino-3-(1H-imidazol-4-yl)-N-(4-phenylbutyl)propanamide]: 328 (309-351) %; for `N[C@H](Cc1c[nH]cn1)C(=O)NCCCCc1ccccc1` [Compound 8b, (R)-2-amino-3-(1H-imidazol-4-yl)-N-(4-phenylbutyl)propanamide]: 233.8 (215.9 to 254.8) %.

On to `N[C@H](Cc1c[nH]cn1)C(=O)NCc1ccc2ccccc2c1` [Compound 10b, (R)-2-amino-3-(1H-imidazol-4-yl)-N-(naphthalen-2-ylmethyl)propanamide], for which, where the note is “95% CI in parentheses”, the EC50 came out at 6.3 µM. Moreover, the “Amax (maximum % activation achieved)” value under setting [1] was 197.5 (184.9 to 214.8) %.

With `N[C@H](Cc1c[nH]cn1)C(=O)NCc1cccc2ccccc12` [Compound 10d, (R)-2-amino-3-(1H-imidazol-4-yl)-N-(naphthalen-1-ylmethyl)propanamide], under setting [1], the “Amax (maximum % activation achieved)” value is recorded as 343 (325.2 to 363.5) %.

(Values after US20210198647A1, “Enhancers of Neurolysin Activity” (Texas Tech University System, priority 2018, published 2021).)
